Data as given in patent publication US20050215649A1, “Conjugated alphatic dialdehyde disinfecting and sterilizing compositions and methods of using the same” (priority 2004, published 2005).
Read-outs that look alike come from different tables or passages of the source.

Experiments:
spores of B. subtilis = test: AOAC Sporicidal Test, B. subtilis spores; format: cell-based; conditions: pH 4, 20° C., 24 hours
Method: (§1) In this example, a series of aqueous solutions containing from 2 to 0.5% of 2-butenedial, buffered at pH 4 with monopotassium hydrogen phosphate and acetic acid, were tested according to methods described in the AOAC Sporicidal Test to determine their effectiveness against spores of B. subtilis and C. sporogenes at 20° C. in 24 hours.

[1] = Storage stability of solutions at 0-5° C., pH 4; format: physicochemical; conditions: pH 4, 0-5° C.
Method: Solutions containing about 2.7% of 2-butenedial buffered to pH 4 were stored at 0-5° C. for about 3 months to determine the effect of storage temperature on the stability of the solutions.

[2] = Use life stability at 25° C. for 14 days, effect of pH; format: physicochemical
Method: Solutions containing 2% of 2-butenedial buffered to pH 2.5, 3.5 and 4.5 were aged at 25° C. for 14 days to determine the effect of pH on use life stability.

Solubility in water = format: physicochemical
Source text: 2-Butenedial is present in the composition, at use concentration, in amounts of between 0.5% and 1.0% by weight. Higher concentrations, e.g., up to 2%, or lower concentrations, e.g., above 0.25%, could be used if desired. The preferred concentration of 2-butenedial at use dilution is about 0.5% by weight. Higher concentrations of 2-butenedial may be used for shipping the composition to the point of use and the composition could then be diluted with water to the desired use concentration. The limit on the amount of 2-butenedial used in the concentrate composition is a function of the solubility of 2-butenedial in water, which is about 20% w/w. To achieve compositions with greater than 20% w/w, a water miscible co-solvent can be used. Typically, suitable co-solvents include low molecular weight alcohols and glycols. The optimum parameters for any given quantity to be sterilized or disinfected can be determined by routine experimentation using varying concentrations, treatment times, and temperatures as described herein.

[3] = Storage stability of solutions at 25° C., effect of pH; format: physicochemical
Method: Solutions containing about 3% of 2-butenedial buffered to pH 3, 5 and 7 were stored at 25° C. for about 3 months to determine the effect of pH on the stability of the solutions.

spores of C. sporogenes = test: AOAC Sporicidal Test, C. sporogenes spores; format: cell-based; conditions: pH 4, 20° C., 24 hours
Method: as §1

Mycobacterium bovis BCG = format: cell-based; conditions: for time within which biocidal: 0.5% 2-butenedial
[4] = 0.5% (w/w) butenedial, penicylinders
[5] = 1% (w/w) butenedial, penicylinders
[6] = 2% (w/w) butenedial, penicylinders

## O=CC=CC=O [2-butenedial, 2-Butenedial]
Spores of B. subtilis; [4]
  Total No. of Positives(Failures/Total No. of Tests): 0/30
Spores of B. subtilis; 0.5% (w/w) butenedial, sutures
  Total No. of Positives(Failures/Total No. of Tests): 0/30
Spores of B. subtilis; [5]
  Total No. of Positives(Failures/Total No. of Tests): 0/30
Spores of B. subtilis; 1% (w/w) butenedial, sutures
  Total No. of Positives(Failures/Total No. of Tests): 0/30
Spores of B. subtilis; [6]
  Total No. of Positives(Failures/Total No. of Tests): 0/30
Spores of B. subtilis; 2% (w/w) butenedial, sutures
  Total No. of Positives(Failures/Total No. of Tests): 0/30
Spores of B. subtilis
  minimum effective concentration against spores: about 0.5%
[1]; storage time 0 mo
  % Butenedial: 2.72%
[1]; storage time 1 mo
  % Butenedial: 2.67%
[1]; storage time 2 mo
  % Butenedial: 2.68%
[1]; storage time 3 mo
  % Butenedial: 2.54%
[2]; 25° C., pH 2.5, 3.5 and 4.5, minimum effective concentration 0.5%
  acceptable use life stability: at least 14 days
[2]; pH 2.5, 25° C., use life 0 days
  Percent (%) Butenedial: 2.0%
[2]; pH 2.5, 25° C., use life 2 days
  Percent (%) Butenedial: 1.94%
[2]; pH 2.5, 25° C., use life 4 days
  Percent (%) Butenedial: 1.84%
[2]; pH 2.5, 25° C., use life 7 days
  Percent (%) Butenedial: 1.78%
[2]; pH 2.5, 25° C., use life 10 days
  Percent (%) Butenedial: 1.7%
[2]; pH 2.5, 25° C., use life 14 days
  Percent (%) Butenedial: 1.6%
[2]; pH 3.5, 25° C., use life 0 days
  Percent (%) Butenedial: 2.0%
[2]; pH 3.5, 25° C., use life 2 days
  Percent (%) Butenedial: 1.92%
[2]; pH 3.5, 25° C., use life 4 days
  Percent (%) Butenedial: 1.76%
[2]; pH 3.5, 25° C., use life 7 days
  Percent (%) Butenedial: 1.6%
[2]; pH 3.5, 25° C., use life 10 days
  Percent (%) Butenedial: 1.5%
[2]; pH 3.5, 25° C., use life 14 days
  Percent (%) Butenedial: 1.4%
[2]; pH 4.5, 25° C., use life 0 days
  Percent (%) Butenedial: 2.0%
[2]; pH 4.5, 25° C., use life 2 days
  Percent (%) Butenedial: 1.73%
[2]; pH 4.5, 25° C., use life 4 days
  Percent (%) Butenedial: 1.5%
[2]; pH 4.5, 25° C., use life 7 days
  Percent (%) Butenedial: 1.32%
[2]; pH 4.5, 25° C., use life 10 days
  Percent (%) Butenedial: 1.0%
[2]; pH 4.5, 25° C., use life 14 days
  Percent (%) Butenedial: 0.8%
Solubility in water
  solubility in water: about 20 % w/w
[3]; pH 3, 25° C., storage time 0 months
  Percent (%) Butenedial: 2.94%
[3]; pH 3, 25° C., storage time 1 month
  Percent (%) Butenedial: 2.4%
[3]; pH 3, 25° C., storage time 2 months
  Percent (%) Butenedial: 1.77%
[3]; pH 3, 25° C., storage time 3 months
  Percent (%) Butenedial: 0.95%
[3]; pH 5, 25° C., storage time 0 months
  Percent (%) Butenedial: 2.94%
[3]; pH 5, 25° C., storage time 1 month
  Percent (%) Butenedial: 1.06%
[3]; pH 5, 25° C., storage time 2 months
  Percent (%) Butenedial: 0.55%
[3]; pH 5, 25° C., storage time 3 months
  Percent (%) Butenedial: 0.13%
[3]; pH 7, 25° C., storage time 0 months
  Percent (%) Butenedial: 2.94%
[3]; pH 7, 25° C., storage time 1 month
  Percent (%) Butenedial: 0.12%
[3]; pH 7, 25° C., storage time 2 months
  Percent (%) Butenedial: 0.09%
[3]; pH 7, 25° C., storage time 3 months
  Percent (%) Butenedial: 0.06%
[3]; stored as one component at pH 3, 25° C.
  acceptable storage stability: about 3 months
Spores of C. sporogenes; [4]
  Total No. of Positives(Failures/Total No. of Tests): 1/30
Spores of C. sporogenes; 0.5% (w/w) butenedial, sutures
  Total No. of Positives(Failures/Total No. of Tests): 0/30
Spores of C. sporogenes; [5]
  Total No. of Positives(Failures/Total No. of Tests): 0/30
Spores of C. sporogenes; 1% (w/w) butenedial, sutures
  Total No. of Positives(Failures/Total No. of Tests): 0/30
Spores of C. sporogenes; [6]
  Total No. of Positives(Failures/Total No. of Tests): 0/30
Spores of C. sporogenes; 2% (w/w) butenedial, sutures
  Total No. of Positives(Failures/Total No. of Tests): 0/30
Spores of C. sporogenes
  minimum effective concentration against spores: about 0.5%
Mycobacterium bovis BCG; pH 4, 20° C.
  time within which biocidal: ≤ 30 min
Mycobacterium bovis BCG; pH 5.5, 20° C.
  time within which biocidal: ≤ 30 min
Mycobacterium bovis BCG; 0.5% (w/w) butenedial, pH 4, 20° C., 5 min
  Percent Reduction of Organisms: >99.78%
Mycobacterium bovis BCG; 0.5% (w/w) butenedial, pH 4, 20° C., 15 min
  Percent Reduction of Organisms: >99.996%
Mycobacterium bovis BCG; 0.5% (w/w) butenedial, pH 4, 20° C., 30 min
  Percent Reduction of Organisms: >100%
Mycobacterium bovis BCG; 0.5% (w/w) butenedial, pH 4, 20° C., 60 min
  Percent Reduction of Organisms: >100%
Mycobacterium bovis BCG; 0.5% (w/w) butenedial, pH 5.5, 20° C., 5 min
  Percent Reduction of Organisms: 83.5%
Mycobacterium bovis BCG; 0.5% (w/w) butenedial, pH 5.5, 20° C., 15 min
  Percent Reduction of Organisms: >99.996%
Mycobacterium bovis BCG; 0.5% (w/w) butenedial, pH 5.5, 20° C., 30 min
  Percent Reduction of Organisms: >100%
Mycobacterium bovis BCG; 0.5% (w/w) butenedial, pH 5.5, 20° C., 60 min
  Percent Reduction of Organisms: >100%
Mycobacterium bovis BCG; 1% (w/w) butenedial, pH 4, 20° C., 5 min
  Percent Reduction of Organisms: >99.97%
Mycobacterium bovis BCG; 1% (w/w) butenedial, pH 4, 20° C., 15 min
  Percent Reduction of Organisms: >99.997%
Mycobacterium bovis BCG; 1% (w/w) butenedial, pH 4, 20° C., 30 min
  Percent Reduction of Organisms: >100%
Mycobacterium bovis BCG; 1% (w/w) butenedial, pH 4, 20° C., 60 min
  Percent Reduction of Organisms: >100%
Mycobacterium bovis BCG; 1% (w/w) butenedial, pH 5.5, 20° C., 5 min
  Percent Reduction of Organisms: 94.5%
Mycobacterium bovis BCG; 1% (w/w) butenedial, pH 5.5, 20° C., 15 min
  Percent Reduction of Organisms: >99.997%
Mycobacterium bovis BCG; 1% (w/w) butenedial, pH 5.5, 20° C., 30 min
  Percent Reduction of Organisms: >100%
Mycobacterium bovis BCG; 1% (w/w) butenedial, pH 5.5, 20° C., 60 min
  Percent Reduction of Organisms: >100%
Mycobacterium bovis BCG; 2% (w/w) butenedial, pH 4, 20° C., 5 min
  Percent Reduction of Organisms: >99.98%
Mycobacterium bovis BCG; 2% (w/w) butenedial, pH 4, 20° C., 15 min
  Percent Reduction of Organisms: >99.998%
Mycobacterium bovis BCG; 2% (w/w) butenedial, pH 4, 20° C., 30 min
  Percent Reduction of Organisms: >100%
Mycobacterium bovis BCG; 2% (w/w) butenedial, pH 4, 20° C., 60 min
  Percent Reduction of Organisms: >100%
Mycobacterium bovis BCG; 2% (w/w) butenedial, pH 5.5, 20° C., 5 min
  Percent Reduction of Organisms: 95%
Mycobacterium bovis BCG; 2% (w/w) butenedial, pH 5.5, 20° C., 15 min
  Percent Reduction of Organisms: 99.95%
Mycobacterium bovis BCG; 2% (w/w) butenedial, pH 5.5, 20° C., 30 min
  Percent Reduction of Organisms: >100%
Mycobacterium bovis BCG; 2% (w/w) butenedial, pH 5.5, 20° C., 60 min
  Percent Reduction of Organisms: >100%
Mycobacterium bovis BCG; based on results on spores and tubercular bacteria
  minimum effective concentration: 0.5%
